Experimental data reported in ChEMBL document CHEMBL5465560, “Selectivity Literature for EUbOPEN Chemogenomic Library” (2024).
Values belong to the compound of their own block, whether it stands above or below them.

Experiments:
[1] = target: Wee1-like protein kinase (Homo sapiens) (UniProt P30291); assay: Selectivity interaction (KinomeScan (DiscoverX)) EUB0000666a WEE1; conditions: at 10 µM
[2] = target: T1, Mitogen-activated protein kinase kinase kinase 5 (Homo sapiens) (UniProt Q99683); assay: Selectivity interaction (Upstate Kinase Profiler service (Millipore)) EUB0000056c MAP3K5; conditions: at 1 µM
T1 sequence (whole entry): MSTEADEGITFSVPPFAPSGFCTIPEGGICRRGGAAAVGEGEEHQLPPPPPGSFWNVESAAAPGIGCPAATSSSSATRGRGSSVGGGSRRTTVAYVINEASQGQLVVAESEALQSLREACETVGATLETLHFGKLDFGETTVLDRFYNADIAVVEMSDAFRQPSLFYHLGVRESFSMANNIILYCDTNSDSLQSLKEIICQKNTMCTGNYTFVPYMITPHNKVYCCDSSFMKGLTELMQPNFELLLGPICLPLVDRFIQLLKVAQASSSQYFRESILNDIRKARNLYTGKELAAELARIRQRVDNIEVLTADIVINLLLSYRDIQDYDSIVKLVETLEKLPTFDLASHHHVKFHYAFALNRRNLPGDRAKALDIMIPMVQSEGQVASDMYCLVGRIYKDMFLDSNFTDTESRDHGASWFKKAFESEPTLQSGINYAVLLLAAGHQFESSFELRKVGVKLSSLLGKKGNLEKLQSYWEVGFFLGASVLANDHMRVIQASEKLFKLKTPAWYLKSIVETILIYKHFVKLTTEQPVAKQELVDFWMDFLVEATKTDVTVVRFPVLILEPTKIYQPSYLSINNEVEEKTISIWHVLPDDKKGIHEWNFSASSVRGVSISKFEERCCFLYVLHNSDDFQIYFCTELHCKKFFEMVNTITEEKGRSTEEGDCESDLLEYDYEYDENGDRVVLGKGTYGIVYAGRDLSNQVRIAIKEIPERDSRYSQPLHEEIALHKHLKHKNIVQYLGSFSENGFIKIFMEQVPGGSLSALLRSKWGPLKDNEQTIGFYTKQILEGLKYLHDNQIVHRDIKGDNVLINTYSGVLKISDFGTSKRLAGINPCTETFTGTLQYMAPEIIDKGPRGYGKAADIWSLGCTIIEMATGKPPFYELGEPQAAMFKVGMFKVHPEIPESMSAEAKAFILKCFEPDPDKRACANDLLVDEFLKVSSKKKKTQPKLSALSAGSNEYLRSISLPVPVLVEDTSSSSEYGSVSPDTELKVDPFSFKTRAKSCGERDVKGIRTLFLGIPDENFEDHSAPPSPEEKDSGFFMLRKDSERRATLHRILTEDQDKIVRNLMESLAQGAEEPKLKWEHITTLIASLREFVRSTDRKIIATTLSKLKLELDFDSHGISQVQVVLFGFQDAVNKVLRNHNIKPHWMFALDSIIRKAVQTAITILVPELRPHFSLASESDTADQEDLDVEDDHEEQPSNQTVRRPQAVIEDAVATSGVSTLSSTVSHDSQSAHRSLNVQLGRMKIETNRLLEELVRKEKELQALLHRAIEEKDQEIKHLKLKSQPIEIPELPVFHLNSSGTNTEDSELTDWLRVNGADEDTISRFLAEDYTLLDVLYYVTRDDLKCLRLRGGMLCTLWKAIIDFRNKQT

[3] = target: Cyclin-dependent kinase 18 (Homo sapiens) (UniProt Q07002); assay: Selectivity interaction (ActivX KiNativ screen (kinase selectivity in THP-1 cell lysates)) EUB0000639a CDK18; format: subcellular; conditions: lysate, at 1 µM
Chain of Cyclin-dependent kinase 18 (Homo sapiens) (Q07002 whole entry): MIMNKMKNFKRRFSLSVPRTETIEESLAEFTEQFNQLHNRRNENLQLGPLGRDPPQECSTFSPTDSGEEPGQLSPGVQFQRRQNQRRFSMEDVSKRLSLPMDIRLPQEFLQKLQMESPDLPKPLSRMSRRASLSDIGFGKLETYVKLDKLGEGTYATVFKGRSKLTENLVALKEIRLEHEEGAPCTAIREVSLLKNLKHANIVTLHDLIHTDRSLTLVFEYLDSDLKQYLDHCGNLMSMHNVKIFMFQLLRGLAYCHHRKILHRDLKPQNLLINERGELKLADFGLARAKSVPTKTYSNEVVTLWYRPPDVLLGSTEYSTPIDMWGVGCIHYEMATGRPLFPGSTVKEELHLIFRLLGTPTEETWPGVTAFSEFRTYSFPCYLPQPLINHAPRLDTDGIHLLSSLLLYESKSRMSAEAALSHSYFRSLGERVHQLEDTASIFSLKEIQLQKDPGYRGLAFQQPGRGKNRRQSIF

[4] = target: Protein-tyrosine kinase 2-beta (Homo sapiens) (UniProt Q14289); assay: Selectivity interaction (ActivX KiNativ screen (kinase selectivity in THP-1 cell lysates)) EUB0000639a PTK2B; format: subcellular; conditions: lysate, at 0.2 µM
Chain of Protein-tyrosine kinase 2-beta (Homo sapiens) (Q14289 whole entry, looked up): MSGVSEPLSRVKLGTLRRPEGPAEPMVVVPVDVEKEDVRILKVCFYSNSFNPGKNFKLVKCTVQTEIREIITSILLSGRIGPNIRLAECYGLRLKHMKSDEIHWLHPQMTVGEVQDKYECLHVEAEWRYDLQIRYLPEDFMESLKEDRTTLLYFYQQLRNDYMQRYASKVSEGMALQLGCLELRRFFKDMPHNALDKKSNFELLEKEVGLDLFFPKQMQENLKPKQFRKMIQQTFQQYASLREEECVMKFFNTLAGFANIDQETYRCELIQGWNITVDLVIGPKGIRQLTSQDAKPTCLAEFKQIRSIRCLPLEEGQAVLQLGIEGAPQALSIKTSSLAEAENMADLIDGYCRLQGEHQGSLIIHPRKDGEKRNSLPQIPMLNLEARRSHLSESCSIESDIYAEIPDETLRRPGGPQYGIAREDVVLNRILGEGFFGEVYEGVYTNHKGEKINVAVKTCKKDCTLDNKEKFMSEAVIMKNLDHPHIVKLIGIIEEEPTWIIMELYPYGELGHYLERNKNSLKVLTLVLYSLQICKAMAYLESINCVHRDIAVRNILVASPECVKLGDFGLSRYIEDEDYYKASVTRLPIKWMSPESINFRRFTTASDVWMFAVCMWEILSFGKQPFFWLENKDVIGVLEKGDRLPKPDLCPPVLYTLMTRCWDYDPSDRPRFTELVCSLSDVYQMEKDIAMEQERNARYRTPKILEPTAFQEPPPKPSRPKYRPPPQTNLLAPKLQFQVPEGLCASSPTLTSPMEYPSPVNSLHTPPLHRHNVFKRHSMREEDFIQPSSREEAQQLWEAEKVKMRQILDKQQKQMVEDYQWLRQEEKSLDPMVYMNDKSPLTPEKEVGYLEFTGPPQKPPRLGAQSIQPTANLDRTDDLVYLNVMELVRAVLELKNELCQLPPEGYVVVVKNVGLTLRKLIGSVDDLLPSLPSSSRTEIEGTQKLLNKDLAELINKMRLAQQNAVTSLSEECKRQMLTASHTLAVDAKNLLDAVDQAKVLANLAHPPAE

[5] = target: EML4-ALK (Homo sapiens) (UniProt Q9UM73+Q9HC35); assay: Selectivity interaction (ProQinase) EUB0000171b ALK; format: protein assay; conditions: at 1 µM
[6] = target: Beta-2 adrenergic receptor (Homo sapiens, UniProt P07550); assay: Selectivity interaction (Panel of non-epigenetic targets (kinases, GPCRs, ion channels, and transporters, Eurofins) ) EUB0000271b ADRB2; conditions: at 1 µM
Chain of Beta-2 adrenergic receptor (P07550 whole entry, looked up): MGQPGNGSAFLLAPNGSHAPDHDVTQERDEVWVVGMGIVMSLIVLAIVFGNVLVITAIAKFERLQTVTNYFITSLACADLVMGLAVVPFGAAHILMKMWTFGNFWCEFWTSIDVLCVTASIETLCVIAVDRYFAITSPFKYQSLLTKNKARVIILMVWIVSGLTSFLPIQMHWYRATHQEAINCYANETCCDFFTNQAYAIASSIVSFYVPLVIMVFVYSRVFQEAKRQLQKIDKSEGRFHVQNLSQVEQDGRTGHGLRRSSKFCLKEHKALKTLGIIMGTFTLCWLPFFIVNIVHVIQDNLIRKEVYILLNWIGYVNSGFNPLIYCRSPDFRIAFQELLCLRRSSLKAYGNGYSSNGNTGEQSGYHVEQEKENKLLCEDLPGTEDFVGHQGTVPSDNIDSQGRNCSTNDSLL

[7] = target: Macrophage colony-stimulating factor 1 receptor (Homo sapiens) (UniProt P07333); assay: Selectivity interaction (KinaseProfiler screening (Millipore)) EUB0000601a CSF1R; conditions: at 3 µM
[8] = target: Mitogen-activated protein kinase 1 (Homo sapiens, UniProt P28482); assay: Selectivity interaction (KinomeScan (DiscoverX)) EUB0000595a MAPK1; conditions: at 10 µM
Chain of Mitogen-activated protein kinase 1 (P28482 whole entry): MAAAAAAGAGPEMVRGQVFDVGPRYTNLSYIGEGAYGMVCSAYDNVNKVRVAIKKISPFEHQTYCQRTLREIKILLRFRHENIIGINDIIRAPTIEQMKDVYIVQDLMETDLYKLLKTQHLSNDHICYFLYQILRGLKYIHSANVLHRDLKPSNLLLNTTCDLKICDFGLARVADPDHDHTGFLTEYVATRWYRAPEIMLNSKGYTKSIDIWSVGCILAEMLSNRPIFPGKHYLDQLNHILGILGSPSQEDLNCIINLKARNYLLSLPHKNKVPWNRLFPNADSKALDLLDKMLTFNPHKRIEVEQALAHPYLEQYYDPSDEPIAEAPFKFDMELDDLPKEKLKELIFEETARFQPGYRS

[9] = target: Receptor tyrosine-protein kinase erbB-4 (Homo sapiens, UniProt Q15303); assay: Selectivity interaction (KinomeScan (DiscoverX)) EUB0001049a ERBB4; conditions: at 1 µM
Chain of Receptor tyrosine-protein kinase erbB-4 (Q15303 whole entry): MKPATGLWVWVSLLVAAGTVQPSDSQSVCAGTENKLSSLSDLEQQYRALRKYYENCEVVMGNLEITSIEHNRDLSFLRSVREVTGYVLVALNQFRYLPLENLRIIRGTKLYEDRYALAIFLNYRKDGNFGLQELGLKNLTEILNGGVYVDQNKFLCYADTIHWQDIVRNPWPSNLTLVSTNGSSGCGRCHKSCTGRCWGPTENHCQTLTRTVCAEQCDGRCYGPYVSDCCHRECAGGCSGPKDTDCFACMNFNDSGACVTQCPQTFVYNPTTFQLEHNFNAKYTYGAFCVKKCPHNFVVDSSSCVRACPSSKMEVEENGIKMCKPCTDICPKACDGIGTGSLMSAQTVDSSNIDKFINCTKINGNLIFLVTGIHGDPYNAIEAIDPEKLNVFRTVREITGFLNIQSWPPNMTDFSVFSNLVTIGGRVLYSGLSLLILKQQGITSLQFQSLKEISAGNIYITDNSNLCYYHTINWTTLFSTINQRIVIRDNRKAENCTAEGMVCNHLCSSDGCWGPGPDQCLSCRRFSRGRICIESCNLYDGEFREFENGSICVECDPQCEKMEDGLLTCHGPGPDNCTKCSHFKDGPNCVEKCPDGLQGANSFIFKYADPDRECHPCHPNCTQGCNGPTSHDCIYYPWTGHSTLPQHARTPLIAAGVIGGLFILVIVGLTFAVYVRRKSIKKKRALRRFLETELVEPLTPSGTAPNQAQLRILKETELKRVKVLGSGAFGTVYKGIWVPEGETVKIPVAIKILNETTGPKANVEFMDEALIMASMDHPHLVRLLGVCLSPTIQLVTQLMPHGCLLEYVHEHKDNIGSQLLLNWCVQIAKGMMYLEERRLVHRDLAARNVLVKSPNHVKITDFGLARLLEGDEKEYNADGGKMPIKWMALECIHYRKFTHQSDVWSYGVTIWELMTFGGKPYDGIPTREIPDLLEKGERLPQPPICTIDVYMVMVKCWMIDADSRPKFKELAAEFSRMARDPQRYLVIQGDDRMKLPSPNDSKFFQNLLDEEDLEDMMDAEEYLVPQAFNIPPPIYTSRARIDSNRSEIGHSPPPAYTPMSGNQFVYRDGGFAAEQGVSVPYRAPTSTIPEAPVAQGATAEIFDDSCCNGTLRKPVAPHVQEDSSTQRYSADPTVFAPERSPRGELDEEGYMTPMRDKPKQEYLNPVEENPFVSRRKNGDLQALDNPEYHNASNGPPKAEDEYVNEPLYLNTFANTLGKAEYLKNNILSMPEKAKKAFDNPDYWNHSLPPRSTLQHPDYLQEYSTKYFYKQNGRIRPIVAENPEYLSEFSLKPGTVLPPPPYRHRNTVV

[10] = target: Serine/threonine-protein kinase 16 (Homo sapiens, UniProt O75716); assay: Selectivity interaction (KinomeScan (DiscoverX)) EUB0000045b STK16
Chain of Serine/threonine-protein kinase 16 (O75716 whole entry): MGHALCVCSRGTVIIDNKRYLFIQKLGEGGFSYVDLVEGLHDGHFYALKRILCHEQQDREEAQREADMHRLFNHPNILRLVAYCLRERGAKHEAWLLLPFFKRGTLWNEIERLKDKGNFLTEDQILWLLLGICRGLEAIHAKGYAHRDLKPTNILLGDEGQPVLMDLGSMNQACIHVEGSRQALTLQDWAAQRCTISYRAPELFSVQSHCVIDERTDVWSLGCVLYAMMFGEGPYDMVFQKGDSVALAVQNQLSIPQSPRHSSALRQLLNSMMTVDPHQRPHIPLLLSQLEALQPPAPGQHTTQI

[11] = target: Histone-lysine N-methyltransferase, H3 lysine-36 specific (Homo sapiens) (UniProt Q96L73); conditions: at 1 µM
[12] = target: Interferon-induced, double-stranded RNA-activated protein kinase (Homo sapiens) (UniProt P19525); assay: Selectivity interaction (KinomeScan (DiscoverX)) EUB0000618a EIF2AK2; conditions: at 10 µM
[13] = target: Tyrosine-protein kinase Blk (Homo sapiens) (UniProt P51451); assay: Selectivity interaction (KinomeScan (DiscoverX)) EUB0001619a BLK; conditions: at 1 µM
Chain of Tyrosine-protein kinase Blk (Homo sapiens) (P51451 2-505 limits assumed): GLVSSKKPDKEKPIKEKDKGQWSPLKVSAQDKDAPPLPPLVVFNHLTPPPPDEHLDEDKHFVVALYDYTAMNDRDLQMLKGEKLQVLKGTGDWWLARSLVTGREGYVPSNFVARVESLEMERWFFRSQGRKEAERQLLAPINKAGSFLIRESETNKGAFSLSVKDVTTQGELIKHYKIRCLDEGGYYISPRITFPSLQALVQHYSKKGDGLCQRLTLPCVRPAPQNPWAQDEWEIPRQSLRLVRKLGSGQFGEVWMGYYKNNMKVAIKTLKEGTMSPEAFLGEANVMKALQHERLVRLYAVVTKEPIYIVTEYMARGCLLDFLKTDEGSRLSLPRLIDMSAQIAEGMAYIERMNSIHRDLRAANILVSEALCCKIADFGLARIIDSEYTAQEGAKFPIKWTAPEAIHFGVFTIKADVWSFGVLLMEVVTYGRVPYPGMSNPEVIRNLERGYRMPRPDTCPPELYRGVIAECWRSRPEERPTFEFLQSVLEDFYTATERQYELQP

Chain of Wee1-like protein kinase (Homo sapiens) (P30291 whole entry, looked up): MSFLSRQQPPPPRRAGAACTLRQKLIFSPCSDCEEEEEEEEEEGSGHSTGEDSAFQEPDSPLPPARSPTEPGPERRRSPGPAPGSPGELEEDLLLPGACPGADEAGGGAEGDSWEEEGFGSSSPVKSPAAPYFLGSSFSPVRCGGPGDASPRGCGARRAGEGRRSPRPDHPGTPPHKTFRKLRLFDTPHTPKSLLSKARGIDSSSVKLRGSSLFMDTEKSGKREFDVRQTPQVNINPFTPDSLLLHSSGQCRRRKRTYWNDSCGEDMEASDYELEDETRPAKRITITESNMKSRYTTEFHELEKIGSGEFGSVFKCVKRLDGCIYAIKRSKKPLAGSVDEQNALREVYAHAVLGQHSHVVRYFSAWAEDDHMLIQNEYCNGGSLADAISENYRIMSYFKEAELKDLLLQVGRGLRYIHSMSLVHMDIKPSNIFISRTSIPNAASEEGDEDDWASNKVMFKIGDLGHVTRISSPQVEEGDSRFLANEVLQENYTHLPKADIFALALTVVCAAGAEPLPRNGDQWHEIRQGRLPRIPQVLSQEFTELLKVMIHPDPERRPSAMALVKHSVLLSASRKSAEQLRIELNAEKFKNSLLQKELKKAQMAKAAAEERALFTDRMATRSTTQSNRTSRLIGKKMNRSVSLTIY

Compound: O=C(NOC[C@H](O)CO)c1ccc(F)c(F)c1Nc1ccc(I)cc1F
% of control [1]: 67%

% of inhibition [2]: 90%
Compound: Cc1ccc(-c2ccc3c(ccc4sc5c(c43)NC[C@@H](C)NC5=O)n2)cn1

% of inhibition [3]: 3.9%
% of inhibition [4]: -18.6%
Compound: CC[C@@H]1[C@H](F)C(=O)N[C@@H]1COc1nccc2cc(C(N)=O)c(OC)cc12 [ZIMLOVISERTIB]

% of control [5]: 93%
Compound: C=CC(=O)Nc1cccc(C(=O)Nc2ccc(Nc3cc(-c4[nH]c(SC)nc4C)ccn3)cc2)c1

Compound: Cc1cc(C)cc([C@@H]2c3cc(C)ccc3NC(=O)CN2C(=O)c2ccc(Br)s2)c1
% of inhibition [6]: -7%

% of inhibition [7]: 50%
Compound: CCc1cc(Nc2nccc(-c3c(-c4ccc(OC)c(C(=O)Nc5c(F)cccc5F)c4)nc4ccccn34)n2)c(OC)cc1N1CCC(N2CCN(S(C)(=O)=O)CC2)CC1

Compound: COCC(=O)NC/C=C/c1ccc2ncnc(Nc3ccc(Oc4ccc(C)nc4)c(C)c3)c2c1 [CP-724714]
% of control [8]: 100%

Compound: COc1cc(Nc2nc(C)cc(-c3cnn4nc(OC)ccc34)n2)cc(C(F)(F)F)c1
% of control [9]: 90%

Compound: C=CC(=O)Nc1cc(-n2c(=O)ccc3cnc4ccc(-c5ccc(NS(C)(=O)=O)cc5)cc4c32)ccc1C
% of control ([10]; at 1 µM): 98%
% of control ([10]; at 10 µM): 28%

% activity [11]: > 90%
Compound: CNCCN1CCC(c2cc(CN(C)C(=O)c3cccc(Oc4ccccc4)c3)ccn2)CC1

Compound: O[C@H]1CC[C@H](Nc2ncc3nc(Nc4c(F)cc(F)cc4F)n([C@H]4CCOC4)c3n2)CC1
% of control [12]: 100%

Compound: N#Cc1cccc(-c2c[nH]c3ncnc(N4CCOCC4)c23)c1
% of control [13]: 72%
